The values below come from ChEMBL document CHEMBL1130125, “beta-Methylation of the Phe7 and Trp9 melanotropin side chain pharmacophores affects ligand-receptor interactions and prolonged biological activity” (J Med Chem, 1997).

Assay [1] in a line: Decrease in lizard skin reflectivity ([…] activity). The class given is functional.
The target of assay [2] is frog skin melanocortin receptor (Rana pipiens). Nature of the assay: Decrease in frog skin reflectivity ([…] activity).
The test system of another assay is lizard. The assay can be described thus: Relative potency compared to alpha MSH in a lizard skin bioassay. It is filed as functional.
Assay [3] concerns frog skin melanocortin receptor (Rana pipiens). Nature of the assay: Relative potency compared to alpha MSH in a frog skin bioassay.

On to `CCCC[C@H](NC(=O)[C@H](CO)NC(=O)[C@H](Cc1ccc(O)cc1)NC(=O)[C@H](CO)NC(C)=O)C(=O)N[C@@H](CCC(=O)O)C(=O)N[C@@H](Cc1c[nH]cn1)C(=O)N[C@H](C(=O)N[C@@H](CCCN=C(N)N)C(=O)N[C@@H](Cc1c[nH]c2ccccc12)C(=O)NCC(=O)N[C@@H](CCCCN)C(=O)N1CCC[C@H]1C(=O)N[C@H](C(N)=O)C(C)C)[C@H](C)c1ccccc1`, for which the 50% effective concentration (EC50) in assay [1] was determined as 1 nM. That is a single-digit nanomolar value.

`CCCC[C@H](NC(=O)[C@H](CO)NC(=O)[C@H](Cc1ccc(O)cc1)NC(=O)[C@H](CO)NC(C)=O)C(=O)N[C@@H](CCC(=O)O)C(=O)N[C@@H](Cc1c[nH]cn1)C(=O)N[C@H](C(=O)N[C@@H](CCCN=C(N)N)C(=O)N[C@@H](Cc1c[nH]c2ccccc12)C(=O)NCC(=O)N[C@@H](CCCCN)C(=O)N1CCC[C@H]1C(=O)N[C@H](C(N)=O)C(C)C)[C@@H](C)c1ccccc1` returned a 50% effective concentration (EC50) in assay [1] of 3.33 nM. This EC50 is about 3.3-fold higher than that of the compound before.

Compound `CCCC[C@H](NC(C)=O)C(=O)N[C@H]1CC(=O)NCCCC[C@@H](C(N)=O)NC(=O)[C@H]([C@@H](C)c2c[nH]c3ccccc23)NC(=O)[C@H](CCCN=C(N)N)NC(=O)[C@@H](Cc2ccccc2)NC(=O)[C@H](Cc2c[nH]cn2)NC1=O` displayed a half-maximal effective concentration (EC50) in assay [1] of 1 nM.

Consider `CCCC[C@H](NC(C)=O)C(=O)N[C@H]1CC(=O)NCCCC[C@@H](C(N)=O)NC(=O)[C@H]2Cc3c([nH]c4ccccc34)CN2C(=O)[C@H](CCCNC(=N)N)NC(=O)[C@@H](Cc2ccccc2)NC(=O)[C@H](Cc2cnc[nH]2)NC1=O`, for which the results for the EC50 in assay [1] and in assay [2] were 11.1 nM and 1 nM, respectively.

Consider `CCCC[C@H](NC(C)=O)C(=O)N[C@H]1CC(=O)NCCCC[C@@H](C(N)=O)NC(=O)[C@@H]2Cc3c([nH]c4ccccc34)CN2C(=O)[C@H](CCCNC(=N)N)NC(=O)[C@@H](Cc2ccccc2)NC(=O)[C@H](Cc2cnc[nH]2)NC1=O`, for which the EC50 in assay [1] turned out to be 20 nM; in assay [2] it was 3.33 nM.

On to `CCCC[C@H](NC(C)=O)C(=O)N[C@H]1CC(=O)NCCCC[C@H](C(N)=O)NC(=O)[C@H]([C@@H](C)c2c[nH]c3ccccc23)NC(=O)[C@H](CCCN=C(N)N)NC(=O)[C@@H](Cc2ccccc2)NC(=O)[C@H](Cc2c[nH]cn2)NC1=O`, for which the values for the Relative potency (in the assay with lizard; in assay [3]) were 1 and 0.23, respectively.

For `CCCC[C@H](NC(C)=O)C(=O)N[C@H]1CC(=O)NCCCCC(C(N)=O)NC(=O)[C@H](Cc2c[nH]c3ccccc23)NC(=O)[C@H](CCCN=C(N)N)NC(=O)[C@@H]([C@@H](C)c2ccccc2)NC(=O)[C@H](Cc2c[nH]cn2)NC1=O` (single isomer, unassigned), the EC50 stood at 0.3 nM in assay [1] and 2 nM in assay [2]. For the same compound, the Relative potency in the assay with lizard was 3.3; in assay [3] it was 0.05.

As for `CCCC[C@H](NC(C)=O)C(=O)N[C@H]1CC(=O)NCCCCC(C(N)=O)NC(=O)[C@H](Cc2c[nH]c3ccccc23)NC(=O)[C@H](CCCN=C(N)N)NC(=O)C([C@@H](C)c2ccccc2)NC(=O)[C@H](Cc2c[nH]cn2)NC1=O` (single isomer, unassigned), the EC50 in assay [1] amounted to 3.44 nM; in assay [2], 6.25 nM. Moreover, the Relative potency with lizard came out at 0.29; in assay [3], 0.016.

In the case of `CCCC[C@H](NC(C)=O)C(=O)N[C@H]1CC(=O)NCCCCC(C(N)=O)NC(=O)[C@H]([C@H](C)c2c[nH]c3ccccc23)NC(=O)[C@H](CCCN=C(N)N)NC(=O)C(Cc2ccccc2)NC(=O)[C@H](Cc2c[nH]cn2)NC1=O` (single isomer, unassigned), in assay [1], the concentration for a half-maximal effect (EC50) turned out to be 6.67 nM. For the same compound, the Relative potency with lizard is 0.15; in assay [3] it was 0.004.

As to `CCCC[C@H](NC(C)=O)C(=O)N[C@H]1CC(=O)NCCCCC(C(N)=O)NC(=O)[C@H](Cc2c[nH]c3ccccc23)NC(=O)[C@H](CCCN=C(N)N)NC(=O)[C@@H]([C@H](C)c2ccccc2)NC(=O)[C@H](Cc2c[nH]cn2)NC1=O` (single isomer, unassigned; 5) [listing 1 of 2 here], the values for the half-maximal effective concentration (EC50) in assay [1] and in assay [2] were 0.2 nM and 6.25 nM, respectively.

In the case of `CCCC[C@H](NC(C)=O)C(=O)N[C@H]1CC(=O)NCCCCC(C(N)=O)NC(=O)[C@H](Cc2c[nH]c3ccccc23)NC(=O)[C@H](CCCN=C(N)N)NC(=O)[C@@H]([C@H](C)c2ccccc2)NC(=O)[C@H](Cc2c[nH]cn2)NC1=O` (single isomer, unassigned; 5) [listing 2 of 2 here], the values for the Relative potency (in the assay with lizard; in assay [3]) were 5 and 0.016, respectively.

As to `CCCC[C@H](NC(C)=O)C(=O)N[C@H]1CC(=O)NCCCCC(C(N)=O)NC(=O)[C@H](Cc2c[nH]c3ccccc23)NC(=O)[C@H](CCCN=C(N)N)NC(=O)[C@@H]([C@H](C)c2ccccc2)NC(=O)[C@H](Cc2c[nH]cn2)NC1=O` (single isomer, unassigned; 7) [listing 1 of 2 here], the EC50 was 20 nM in assay [1] and 16.7 nM in assay [2].

As to `CCCC[C@H](NC(C)=O)C(=O)N[C@H]1CC(=O)NCCCCC(C(N)=O)NC(=O)[C@H](Cc2c[nH]c3ccccc23)NC(=O)[C@H](CCCN=C(N)N)NC(=O)[C@@H]([C@H](C)c2ccccc2)NC(=O)[C@H](Cc2c[nH]cn2)NC1=O` (single isomer, unassigned; 7) [listing 2 of 2 here], the Relative potency came to 0.05 in the assay with lizard and 0.006 in assay [3].

Regarding `CCCC[C@H](NC(C)=O)C(=O)N[C@H]1CC(=O)NCCCCC(C(N)=O)NC(=O)C([C@H](C)c2c[nH]c3ccccc23)NC(=O)[C@H](CCCN=C(N)N)NC(=O)C(Cc2ccccc2)NC(=O)[C@H](Cc2c[nH]cn2)NC1=O` (single isomer, unassigned; 10) [listing 1 of 2 here], the figures for the concentration for a half-maximal effect (EC50) in assay [1] and in assay [2] were 1.43 nM and 0.06 nM, respectively.

In the case of `CCCC[C@H](NC(C)=O)C(=O)N[C@H]1CC(=O)NCCCCC(C(N)=O)NC(=O)C([C@H](C)c2c[nH]c3ccccc23)NC(=O)[C@H](CCCN=C(N)N)NC(=O)C(Cc2ccccc2)NC(=O)[C@H](Cc2c[nH]cn2)NC1=O` (single isomer, unassigned; 10) [listing 2 of 2 here], the Relative potency was found to be 0.7 with lizard and 1.6 in assay [3].

Take `CCCC[C@H](NC(C)=O)C(=O)N[C@H]1CC(=O)NCCCCC(C(N)=O)NC(=O)C([C@H](C)c2c[nH]c3ccccc23)NC(=O)[C@H](CCCN=C(N)N)NC(=O)C(Cc2ccccc2)NC(=O)[C@H](Cc2c[nH]cn2)NC1=O` (single isomer, unassigned; 11) [listing 1 of 2 here]: the concentration giving a half-maximal response (EC50) in assay [1] was 1 nM; in assay [2] it was 0.33 nM.

Take `CCCC[C@H](NC(C)=O)C(=O)N[C@H]1CC(=O)NCCCCC(C(N)=O)NC(=O)C([C@H](C)c2c[nH]c3ccccc23)NC(=O)[C@H](CCCN=C(N)N)NC(=O)C(Cc2ccccc2)NC(=O)[C@H](Cc2c[nH]cn2)NC1=O` (single isomer, unassigned; 11) [listing 2 of 2 here]: the Relative potency in the assay on lizard stood at 1; in assay [3] it was 0.3.

`CCCC[C@H](NC(=O)[C@H](CO)NC(=O)[C@H](Cc1ccc(O)cc1)NC(=O)[C@H](CO)NC(C)=O)C(=O)N[C@@H](CCC(=O)O)C(=O)N[C@@H](Cc1c[nH]cn1)C(=O)N[C@@H](C(=O)N[C@@H](CCCN=C(N)N)C(=O)N[C@@H](Cc1c[nH]c2ccccc12)C(=O)NCC(=O)N[C@@H](CCCCN)C(=O)N1CCC[C@H]1C(=O)N[C@H](C(N)=O)C(C)C)[C@@H](C)c1ccccc1` (stereo in doubt; 16): the EC50 in assay [1] is 0.5 nM.

In turn, `CCCC[C@H](NC(=O)[C@H](CO)NC(=O)[C@H](Cc1ccc(O)cc1)NC(=O)[C@H](CO)NC(C)=O)C(=O)N[C@@H](CCC(=O)O)C(=O)N[C@@H](Cc1c[nH]cn1)C(=O)N[C@@H](C(=O)N[C@@H](CCCN=C(N)N)C(=O)N[C@@H](Cc1c[nH]c2ccccc12)C(=O)NCC(=O)N[C@@H](CCCCN)C(=O)N1CCC[C@H]1C(=O)N[C@H](C(N)=O)C(C)C)[C@@H](C)c1ccccc1` (stereo in doubt; 17) came in with an EC50 in assay [1] of 1 nM.

By EC50 is commonly meant the concentration needed to bring the measured effect to its halfway point.
